Blank lines part the entries; values can stand above or below the compound they belong to.
Columns and labels:
[1] = biological target: T1, High affinity cGMP-specific 3',5'-cyclic phosphodiesterase 9A (Homo sapiens, UniProt O76083); assay: Inhibition of N-terminal GST-tagged full-length human PDE9A2 expressed in baculovirus infected Sf9 insect cells using cGMP as substrate incubated for 30 mins by HTRF assay
[2] = biological target: T2, cGMP-specific 3',5'-cyclic phosphodiesterase (Homo sapiens, UniProt O76074); assay: Inhibition of N-terminal GST-tagged full-length recombinant human PDE5A1 (1 to 875 residues) expressed in Sf9 insect cells using cGMP as substrate incubated for 30 mins by HTRF assay
[3] = biological target: T3, Histone deacetylase 1 (Homo sapiens, UniProt Q13547); assay: Inhibition of C-terminal 6xHis/FLAG-tagged full-length recombinant human HDAC1 (1 to 482 residues) expressed in Sf9 insect cells using fluorogenic substrate incubated for 30 mins by fluorescence based plate reader analysis
T3 sequence (Q13547 whole entry, the tested form may be a part): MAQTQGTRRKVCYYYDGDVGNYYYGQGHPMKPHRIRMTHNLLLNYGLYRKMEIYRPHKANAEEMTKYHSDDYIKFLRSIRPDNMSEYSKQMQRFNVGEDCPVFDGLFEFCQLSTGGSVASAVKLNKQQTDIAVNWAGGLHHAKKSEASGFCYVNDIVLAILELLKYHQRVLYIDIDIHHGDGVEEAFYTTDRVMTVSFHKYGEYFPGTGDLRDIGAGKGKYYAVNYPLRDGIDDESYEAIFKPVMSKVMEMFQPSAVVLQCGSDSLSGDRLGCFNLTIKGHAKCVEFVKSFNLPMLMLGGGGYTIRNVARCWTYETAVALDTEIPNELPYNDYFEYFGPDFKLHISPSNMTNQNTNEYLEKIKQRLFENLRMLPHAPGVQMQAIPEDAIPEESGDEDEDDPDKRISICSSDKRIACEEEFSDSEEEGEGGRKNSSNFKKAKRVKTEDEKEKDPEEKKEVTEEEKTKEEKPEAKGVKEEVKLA

[4] = biological target: T4, Protein deacetylase HDAC6 (Homo sapiens, UniProt Q9UBN7); assay: Inhibition of full-length recombinant human HDAC6 (1 to 1215 residues) expressed in Sf9 insect cells using fluorogenic substrate incubated for 30 mins by fluorescence based plate reader analysis
T4 sequence (Q9UBN7 whole entry): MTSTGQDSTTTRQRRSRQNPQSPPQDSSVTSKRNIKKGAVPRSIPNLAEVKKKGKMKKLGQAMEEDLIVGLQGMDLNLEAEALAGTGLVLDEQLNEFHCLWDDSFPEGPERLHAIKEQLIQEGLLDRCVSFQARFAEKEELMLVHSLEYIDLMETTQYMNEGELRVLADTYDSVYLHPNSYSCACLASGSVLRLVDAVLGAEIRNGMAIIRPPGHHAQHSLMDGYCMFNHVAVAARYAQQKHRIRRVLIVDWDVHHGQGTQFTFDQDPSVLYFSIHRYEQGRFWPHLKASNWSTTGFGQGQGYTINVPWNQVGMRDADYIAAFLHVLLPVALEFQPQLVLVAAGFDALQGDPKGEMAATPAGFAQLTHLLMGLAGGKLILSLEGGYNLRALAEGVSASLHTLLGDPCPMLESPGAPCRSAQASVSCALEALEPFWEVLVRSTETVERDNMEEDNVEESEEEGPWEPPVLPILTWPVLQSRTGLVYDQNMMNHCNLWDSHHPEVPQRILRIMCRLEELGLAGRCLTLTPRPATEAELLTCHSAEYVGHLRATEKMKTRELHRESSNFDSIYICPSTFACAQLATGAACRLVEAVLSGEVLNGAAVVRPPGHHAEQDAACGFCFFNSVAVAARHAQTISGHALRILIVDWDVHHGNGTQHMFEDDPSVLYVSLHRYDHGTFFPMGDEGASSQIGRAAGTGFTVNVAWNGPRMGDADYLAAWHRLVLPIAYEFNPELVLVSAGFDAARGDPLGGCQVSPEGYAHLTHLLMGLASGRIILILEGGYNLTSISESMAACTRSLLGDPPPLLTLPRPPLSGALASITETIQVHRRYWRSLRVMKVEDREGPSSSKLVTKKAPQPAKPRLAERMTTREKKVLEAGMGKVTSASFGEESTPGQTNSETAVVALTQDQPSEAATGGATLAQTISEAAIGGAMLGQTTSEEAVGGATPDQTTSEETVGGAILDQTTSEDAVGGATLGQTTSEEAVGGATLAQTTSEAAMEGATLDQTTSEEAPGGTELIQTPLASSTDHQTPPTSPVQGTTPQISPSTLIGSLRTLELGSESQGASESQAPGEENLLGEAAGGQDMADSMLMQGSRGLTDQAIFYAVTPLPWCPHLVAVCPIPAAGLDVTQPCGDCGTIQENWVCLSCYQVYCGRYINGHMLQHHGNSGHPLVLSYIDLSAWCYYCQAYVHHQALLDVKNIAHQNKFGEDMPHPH

[5] = biological target: T3, Histone deacetylase 1; assay: Inhibition of HDAC1 (unknown origin)
[6] = biological target: T5, Histone deacetylase 2 (Homo sapiens, UniProt Q92769); assay: Inhibition of HDAC2 (unknown origin)
T5 sequence (Q92769 whole entry): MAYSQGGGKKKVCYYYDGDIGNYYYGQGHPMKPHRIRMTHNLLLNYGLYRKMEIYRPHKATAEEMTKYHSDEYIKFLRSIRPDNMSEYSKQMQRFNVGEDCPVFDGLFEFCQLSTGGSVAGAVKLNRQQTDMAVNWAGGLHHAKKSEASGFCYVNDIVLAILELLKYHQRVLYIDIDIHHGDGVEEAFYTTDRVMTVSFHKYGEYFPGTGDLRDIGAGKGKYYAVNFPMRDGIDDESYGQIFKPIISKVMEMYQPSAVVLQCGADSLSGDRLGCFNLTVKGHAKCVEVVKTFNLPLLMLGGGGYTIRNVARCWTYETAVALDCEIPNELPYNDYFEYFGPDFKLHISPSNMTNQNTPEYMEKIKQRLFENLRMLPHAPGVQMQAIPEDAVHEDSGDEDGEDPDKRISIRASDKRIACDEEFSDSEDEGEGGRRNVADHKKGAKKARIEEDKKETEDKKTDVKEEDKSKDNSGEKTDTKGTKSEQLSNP

[7] = biological target: T4, Protein deacetylase HDAC6; assay: Inhibition of HDAC6 (unknown origin)
[8] = biological target: T1, High affinity cGMP-specific 3',5'-cyclic phosphodiesterase 9A; assay: Inhibition of PDE9 (unknown origin)
[9] = Inhibition of PDE5 (unknown origin); design: species or system Homo sapiens
[10] = biological target: Protein kinase C alpha type (Mus musculus, UniProt P20444); assay: Binding affinity to mouse PKC-alpha assessed as inhibition constant
[11] = biological target: Phosphatidylinositol 4,5-bisphosphate 3-kinase catalytic subunit alpha isoform (Homo sapiens, UniProt P42336); assay: Inhibition of PI3K-alpha (unknown origin)
Chain of Phosphatidylinositol 4,5-bisphosphate 3-kinase catalytic subunit alpha isoform (P42336 whole entry, canonical isoform): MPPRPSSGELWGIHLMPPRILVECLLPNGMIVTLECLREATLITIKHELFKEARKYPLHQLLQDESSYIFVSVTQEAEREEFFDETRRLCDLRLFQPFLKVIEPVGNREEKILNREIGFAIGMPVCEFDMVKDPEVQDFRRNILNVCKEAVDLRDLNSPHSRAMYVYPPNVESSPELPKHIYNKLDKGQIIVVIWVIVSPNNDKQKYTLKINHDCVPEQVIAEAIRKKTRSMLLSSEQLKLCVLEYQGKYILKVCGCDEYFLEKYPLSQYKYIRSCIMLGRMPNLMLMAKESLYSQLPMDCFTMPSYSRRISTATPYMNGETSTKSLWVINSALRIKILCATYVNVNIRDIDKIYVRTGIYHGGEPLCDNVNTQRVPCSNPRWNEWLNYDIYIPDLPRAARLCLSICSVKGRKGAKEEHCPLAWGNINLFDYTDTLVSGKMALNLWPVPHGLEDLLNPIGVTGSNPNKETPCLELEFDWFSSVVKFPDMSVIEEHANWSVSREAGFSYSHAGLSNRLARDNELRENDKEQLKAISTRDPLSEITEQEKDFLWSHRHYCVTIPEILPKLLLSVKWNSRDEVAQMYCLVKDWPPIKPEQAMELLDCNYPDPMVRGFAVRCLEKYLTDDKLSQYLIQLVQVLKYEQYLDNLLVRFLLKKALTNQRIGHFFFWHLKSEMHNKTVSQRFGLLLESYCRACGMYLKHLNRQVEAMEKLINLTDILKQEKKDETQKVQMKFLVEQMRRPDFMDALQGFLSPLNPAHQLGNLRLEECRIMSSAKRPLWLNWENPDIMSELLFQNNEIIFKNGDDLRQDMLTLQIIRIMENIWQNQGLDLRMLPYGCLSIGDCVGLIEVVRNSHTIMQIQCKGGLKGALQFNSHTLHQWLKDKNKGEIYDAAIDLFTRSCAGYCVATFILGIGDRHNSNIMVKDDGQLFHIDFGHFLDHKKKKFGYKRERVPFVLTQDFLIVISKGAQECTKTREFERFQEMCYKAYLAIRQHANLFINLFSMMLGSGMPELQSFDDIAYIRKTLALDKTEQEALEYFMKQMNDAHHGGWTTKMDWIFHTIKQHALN

[12] = biological target: T6, Histone deacetylase 8 (Homo sapiens, UniProt Q9BY41); assay: Inhibition of recombinant human HDAC8 using Fluor-de-lys substrate by fluorescence based microplate reader analysis
T6 sequence (Q9BY41 whole entry): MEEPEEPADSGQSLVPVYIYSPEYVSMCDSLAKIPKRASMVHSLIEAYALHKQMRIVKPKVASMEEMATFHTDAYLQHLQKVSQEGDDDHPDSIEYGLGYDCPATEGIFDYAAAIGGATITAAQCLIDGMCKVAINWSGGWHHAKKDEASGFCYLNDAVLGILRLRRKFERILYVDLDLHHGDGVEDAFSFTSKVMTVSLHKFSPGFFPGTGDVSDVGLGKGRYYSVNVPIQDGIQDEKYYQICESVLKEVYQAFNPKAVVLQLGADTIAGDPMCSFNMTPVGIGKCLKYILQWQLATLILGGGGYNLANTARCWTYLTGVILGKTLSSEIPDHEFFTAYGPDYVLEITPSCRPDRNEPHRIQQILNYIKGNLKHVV

[13] = biological target: 72 kDa type IV collagenase (Homo sapiens, UniProt P08253); assay: Inhibition of MMP2 (unknown origin) using chromogenic substrate incubated for 1 hr followed by substrate addition measured for 30 mins by microplate photometry
Chain of 72 kDa type IV collagenase (P08253 whole entry): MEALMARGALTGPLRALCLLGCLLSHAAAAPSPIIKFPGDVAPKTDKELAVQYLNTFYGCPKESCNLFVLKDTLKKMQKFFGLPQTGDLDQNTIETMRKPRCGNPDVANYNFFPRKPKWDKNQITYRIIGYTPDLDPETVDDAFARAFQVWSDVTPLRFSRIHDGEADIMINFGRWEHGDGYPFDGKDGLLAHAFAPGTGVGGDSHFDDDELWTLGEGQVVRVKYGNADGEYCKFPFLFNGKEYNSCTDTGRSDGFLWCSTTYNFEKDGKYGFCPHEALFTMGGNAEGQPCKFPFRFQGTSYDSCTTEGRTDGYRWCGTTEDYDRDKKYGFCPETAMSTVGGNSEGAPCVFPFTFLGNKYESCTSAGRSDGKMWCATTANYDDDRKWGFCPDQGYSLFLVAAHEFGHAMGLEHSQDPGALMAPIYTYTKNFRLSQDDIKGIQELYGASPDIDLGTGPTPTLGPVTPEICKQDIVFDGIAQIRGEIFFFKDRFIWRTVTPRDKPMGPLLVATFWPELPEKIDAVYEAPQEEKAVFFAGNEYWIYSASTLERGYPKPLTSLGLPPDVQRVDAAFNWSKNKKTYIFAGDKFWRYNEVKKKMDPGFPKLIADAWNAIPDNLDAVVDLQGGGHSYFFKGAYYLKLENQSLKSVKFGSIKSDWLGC

[14] = tested on: A549; assay: Antiinvasive activity against human A549 cells assessed as reduction in cell invasion incubated for 24 hrs by microplate reader analysis relative to control; type: functional; design: scale not given: the % may be the effect or the level left
[15] = biological target: T2, cGMP-specific 3',5'-cyclic phosphodiesterase; assay: Inhibition of PDE5A (unknown origin)
[16] = biological target: T3, Histone deacetylase 1; assay: Inhibition of recombinant human HDAC1 expressed in baculovirus infected Hi-5 insect cells using Ac-Lys-Tyr-Lys (epsilon-acetyl)-AMC as substrate incubated for 3 to 24 hrs by fluorescence based plate reader analysis
[17] = biological target: T5, Histone deacetylase 2; assay: Inhibition of recombinant human HDAC2 expressed in baculovirus infected Hi-5 insect cells using Ac-Lys-Tyr-Lys (epsilon-acetyl)-AMC as substrate incubated for 3 to 24 hrs by fluorescence based plate reader analysis
[18] = biological target: Histone deacetylase 3 (Homo sapiens, UniProt O15379); assay: Inhibition of recombinant human HDAC3 expressed in baculovirus infected Hi-5 insect cells using Ac-Lys-Tyr-Lys (epsilon-acetyl)-AMC as substrate incubated for 3 to 24 hrs by fluorescence based plate reader analysis
Chain of Histone deacetylase 3 (O15379 whole entry): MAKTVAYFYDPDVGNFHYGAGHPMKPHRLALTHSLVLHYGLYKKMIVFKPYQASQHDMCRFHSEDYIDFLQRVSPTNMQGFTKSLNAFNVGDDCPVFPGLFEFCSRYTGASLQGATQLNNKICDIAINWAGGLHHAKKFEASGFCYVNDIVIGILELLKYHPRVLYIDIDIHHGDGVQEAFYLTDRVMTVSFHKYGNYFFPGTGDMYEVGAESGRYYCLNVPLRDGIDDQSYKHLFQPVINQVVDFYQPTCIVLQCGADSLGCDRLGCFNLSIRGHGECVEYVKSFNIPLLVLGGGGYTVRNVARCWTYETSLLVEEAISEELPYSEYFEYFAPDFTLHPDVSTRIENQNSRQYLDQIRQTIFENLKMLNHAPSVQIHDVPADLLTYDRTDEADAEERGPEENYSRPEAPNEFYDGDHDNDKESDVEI

[19] = tested on: HCT-116; assay: Cytotoxicity against human HCT-116 cells assessed as inhibition of cell proliferation incubated for 72 hrs by MTT assay; type: functional, cell-based; conditions: HCT-116, 72 h
[20] = tested on: A549; assay: Cytotoxicity against human A549 cells assessed as inhibition of cell proliferation incubated for 72 hrs by MTT assay; type: functional, cell-based; conditions: A549, 72 h
[21] = biological target: T3, Histone deacetylase 1; assay: Inhibition of full-length recombinant human HDAC1 expressed in baculovirus infected Hi-5 insect cells using AcLys-Tyr-Lys(e-acetyl)-AMC as substrate incubated for 24 hrs by enzymatic assay
[22] = tested on: K562; assay: Antiproliferative activity against human K562 cells assessed as cell growth inhibition incubated for 48 hrs by MTT assay; type: functional, cell-based; conditions: K562, 48 h
[23] = tested on: HepG2; assay: Antiproliferative activity against human HepG2 cells assessed as cell growth inhibition incubated for 48 hrs by MTT assay; type: functional, cell-based; conditions: HepG2, 48 h
[24] = tested on: DU-145; assay: Antiproliferative activity against human DU-145 cells assessed as cell growth inhibition incubated for 48 hrs by MTT assay; type: functional, cell-based; conditions: DU-145, 48 h

T1 sequence (O76083 whole entry, the tested form may be a part): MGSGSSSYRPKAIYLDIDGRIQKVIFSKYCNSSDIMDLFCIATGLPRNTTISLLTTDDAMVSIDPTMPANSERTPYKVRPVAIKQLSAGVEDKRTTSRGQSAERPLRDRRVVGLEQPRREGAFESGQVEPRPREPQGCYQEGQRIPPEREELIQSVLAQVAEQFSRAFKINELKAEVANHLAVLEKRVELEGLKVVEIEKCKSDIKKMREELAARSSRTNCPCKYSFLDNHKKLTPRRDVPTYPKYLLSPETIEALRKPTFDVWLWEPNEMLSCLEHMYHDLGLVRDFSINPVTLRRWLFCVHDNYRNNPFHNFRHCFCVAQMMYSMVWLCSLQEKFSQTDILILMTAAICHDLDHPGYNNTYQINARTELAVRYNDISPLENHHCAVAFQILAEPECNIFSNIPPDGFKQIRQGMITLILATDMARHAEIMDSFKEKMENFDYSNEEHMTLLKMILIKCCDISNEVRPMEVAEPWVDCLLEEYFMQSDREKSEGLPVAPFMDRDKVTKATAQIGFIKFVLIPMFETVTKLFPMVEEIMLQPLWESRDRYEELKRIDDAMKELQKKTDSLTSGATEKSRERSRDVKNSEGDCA

IC50 [1]: > 10 µM
IC50 [2]: 60 nM
IC50 [3]: 310 nM
IC50 [4]: 81 nM
Structure (SMILES): CCCc1nn(C)c2c(=O)[nH]c(-c3cc(CC4CC(C(=O)NO)C4)ccc3OCC)nc12 (stereo not drawn)

IC50 [5]: 138 nM
IC50 [6]: 1250 nM
IC50 [7]: 508 nM
IC50 [8]: 8 nM
IC50 [9]: > 10 µM
Structure (SMILES): C[C@H]1CN(Cc2ccc(/C=C/C(=O)NO)cc2)C[C@@H]1c1nc2c(cnn2C2CCOCC2)c(=O)[nH]1

Structure (SMILES): CC(=O)SCCCCCCCOc1ccc2c(c1)N(C)[C@H](C(C)C)C(=O)N[C@@H](CO)C2
Ki [10]: 4.5 nM

IC50 [7]: 34.6 nM
IC50 [11]: 8.34 nM
Structure (SMILES): O=C(NO)c1ccc(/C=N/NC(=O)c2cc(N3CCOCC3)nc(-c3cccc4[nH]ncc34)n2)cc1

IC50 [12]: 3030 nM
IC50 [13]: 19.6 µM
Structure (SMILES): O=C(O)CC[C@H](NC(=O)Cc1ccc(Br)cc1)C(=O)NCc1ccccc1
Activity [14]: 34%

IC50 [15]: 114 nM
IC50 [5]: 673 nM
IC50 [6]: > 20000 nM
IC50 [7]: > 20000 nM
Structure (SMILES): CCCc1nn(C)c2c(=O)[nH]c(-c3cc(Cc4ccc(C(=O)Nc5ccccc5N)cc4)ccc3OCC)nc12

IC50 [12]: 2890 nM
IC50 [13]: 6.4 µM
Structure (SMILES): COc1ccc(CNC(=O)[C@H](CCC(=O)O)NC(=O)Cc2ccc(Br)cc2)cc1
Activity [14]: 34%

IC50 [16]: 11 µM
IC50 [17]: 750 nM
IC50 [18]: 5.3 µM
Structure (SMILES): COc1cc([C@@H]2c3cc4c(cc3C[C@H]3COC(=O)[C@@H]32)OCO4)cc(OC)c1OC(=O)CC(=O)Nc1ccc(C(=O)Nc2ccccc2N)cc1
IC50 [19]: 40 nM
IC50 [20]: 37 nM

IC50 [7]: 15.3 nM
IC50 [11]: 46.3 nM
Structure (SMILES): O=C(NO)c1ccc(/C=N/NC(=O)c2cc(N3CCOCC3)nc(-c3cccc(O)c3)n2)cc1

IC50 [21]: 150 nM
IC50 [22]: 2560 nM
IC50 [23]: 16.5 µM
IC50 [24]: 5.79 µM
Structure (SMILES): CCN1CCN(c2cc(Nc3ncc(C(=O)Nc4ccccc4N)s3)ncn2)CC1

Structure (SMILES): COc1cc([C@@H]2c3cc4c(cc3C[C@H]3COC(=O)[C@@H]32)OCO4)cc(OC)c1OC(=O)CC(=O)NCc1ccc(C(=O)Nc2ccccc2N)cc1
IC50 [16]: 11.1 µM
IC50 [17]: 1730 nM
IC50 [18]: 1 µM
IC50 [19]: 37 nM
IC50 [20]: 36 nM
